What was measured:
Adenosine receptor A1 = target: T1, Adenosine receptor A1 (Homo sapiens, UniProt P30542); test: Displacement of [3H]R-PIA from recombinant human A1 adenosine receptor expressed in CHO cell membrane incubated for 60 mins by liquid scintillation counting method; type: cell membranes
T1 sequence (P30542 whole entry): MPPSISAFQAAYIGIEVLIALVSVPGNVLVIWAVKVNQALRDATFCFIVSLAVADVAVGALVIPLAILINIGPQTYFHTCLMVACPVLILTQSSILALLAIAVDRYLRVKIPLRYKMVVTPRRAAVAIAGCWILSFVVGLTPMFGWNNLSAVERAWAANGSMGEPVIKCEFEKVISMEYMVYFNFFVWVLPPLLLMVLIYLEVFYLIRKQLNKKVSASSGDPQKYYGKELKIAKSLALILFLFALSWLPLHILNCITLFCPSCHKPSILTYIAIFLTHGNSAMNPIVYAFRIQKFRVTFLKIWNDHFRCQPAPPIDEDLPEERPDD

Adenosine receptor A2a = Adenosine receptor A2a (Homo sapiens, UniProt P29274); test: Displacement of [3H]CGS21680 from recombinant human A2A adenosine receptor expressed in HEK293 cells incubated for 60 mins by liquid scintillation counting method; type: cell-based
Adenosine receptor A3 = target: T2, Adenosine receptor A3 (Homo sapiens, UniProt P0DMS8); test: Displacement of [125I]AB-MECA from human A3 adenosine receptor expressed in CHO cell membrane incubated for 60 mins by gamma counter method; type: cell membranes
T2 sequence (P0DMS8 whole entry): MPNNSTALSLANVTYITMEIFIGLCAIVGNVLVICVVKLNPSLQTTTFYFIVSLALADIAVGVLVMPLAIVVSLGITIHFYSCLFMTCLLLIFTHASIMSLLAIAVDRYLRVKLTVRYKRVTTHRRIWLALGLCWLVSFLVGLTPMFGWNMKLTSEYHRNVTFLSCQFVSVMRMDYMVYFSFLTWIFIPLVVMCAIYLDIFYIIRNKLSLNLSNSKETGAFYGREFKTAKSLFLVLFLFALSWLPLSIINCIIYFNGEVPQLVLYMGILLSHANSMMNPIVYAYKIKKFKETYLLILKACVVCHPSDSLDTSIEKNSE

Adenosine receptor A2a, sequence (P29274 whole entry): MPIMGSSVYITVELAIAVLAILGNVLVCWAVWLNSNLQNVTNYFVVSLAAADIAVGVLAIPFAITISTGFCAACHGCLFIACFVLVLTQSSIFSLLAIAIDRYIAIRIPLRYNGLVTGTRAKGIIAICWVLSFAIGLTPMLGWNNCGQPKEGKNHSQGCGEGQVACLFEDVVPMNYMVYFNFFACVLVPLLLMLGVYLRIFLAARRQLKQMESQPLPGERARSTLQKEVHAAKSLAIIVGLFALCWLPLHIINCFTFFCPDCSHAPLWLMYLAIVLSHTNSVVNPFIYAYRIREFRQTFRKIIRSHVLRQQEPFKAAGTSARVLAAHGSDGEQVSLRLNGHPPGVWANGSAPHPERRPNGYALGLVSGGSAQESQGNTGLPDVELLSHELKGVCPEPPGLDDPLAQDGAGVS

| Ki (Adenosine receptor A1) [µM] | Ki (Adenosine receptor A2a) [µM] | Ki (Adenosine receptor A3) [µM] | SMILES |
| --- | --- | --- | --- |
| 1.67 |  |  | CNc1ncnc2c1ncn2[C@@H]1SC[C@@H](N)[C@H]1O |
| 2.2 | 2.39 | 0.38 | N[C@@H]1CS[C@@H](n2cnc3c(NCc4cccc(I)c4)nc(Cl)nc32)[C@@H]1O |
| 2.45 | 2.3 | 0.26 | N[C@@H]1CS[C@@H](n2cnc3c(NCc4cccc(I)c4)ncnc32)[C@@H]1O |

Reference: ChEMBL document CHEMBL5030536, “Subtle Chemical Changes Cross the Boundary between Agonist and Antagonist: New A3 Adenosine Receptor Homology Models and Structural Network Analysis Can Predict This Boundary” (J Med Chem, 2021)
